The text below walks through data of ChEMBL document CHEMBL5050844 (2019).

A short description of test [1]: Induction of anti-CD3 antibodies-stimulated human T cell activation at 1 uM assessed fold increase in CD25 expression measured by ELISA assay. Also: reference of the scale not given here. The format is functional, T cell line.
Test [2] in a line: Induction of anti-CD3/CD28 antibodies-stimulated human T cell activation at 1 uM assessed fold increase in IL-2 secretion measured by ELISA assay. It counts as functional, T cell line.
Test [3] in a line: Induction of anti-CD3/CD28 antibodies-stimulated human T cell activation at 1 uM assessed fold increase in CD25 expression measured by ELISA assay. The format is functional, T cell line.
Test [4] concerns the target E3 ubiquitin-protein ligase CBL-B (Homo sapiens, UniProt Q13191). Briefly: Inhibition of N-terminal Avi-tagged human CBL-B (36 to 427 residues) incubated with 60 nM Src kinase for 1.5 hrs followed by incubation with fluorescently labeled UbcH5B-Ub for 1 hr and measured by TR-FRET assay. The format is single protein.
The nature of test [5]: Induction of anti-CD3 antibodies-stimulated human T cell activation at 1 uM assessed fold increase in IL-2 secretion measured by ELISA assay. Also: reference of the scale not given here. It counts as functional, T cell line.
Test [6] in a line: Induction of anti-CD3/CD28 antibodies-stimulated human T cell activation at 0.3 uM assessed fold increase in IL-2 secretion measured by ELISA assay. It counts as functional, T cell line.
A short description of test [7]: Induction of anti-CD3/CD28 antibodies-stimulated human T cell activation at 0.3 uM assessed fold increase in CD25 expression measured by ELISA assay. The format is functional, T cell line.

Chain of E3 ubiquitin-protein ligase CBL-B (Q13191 whole entry, the tested form may be a part): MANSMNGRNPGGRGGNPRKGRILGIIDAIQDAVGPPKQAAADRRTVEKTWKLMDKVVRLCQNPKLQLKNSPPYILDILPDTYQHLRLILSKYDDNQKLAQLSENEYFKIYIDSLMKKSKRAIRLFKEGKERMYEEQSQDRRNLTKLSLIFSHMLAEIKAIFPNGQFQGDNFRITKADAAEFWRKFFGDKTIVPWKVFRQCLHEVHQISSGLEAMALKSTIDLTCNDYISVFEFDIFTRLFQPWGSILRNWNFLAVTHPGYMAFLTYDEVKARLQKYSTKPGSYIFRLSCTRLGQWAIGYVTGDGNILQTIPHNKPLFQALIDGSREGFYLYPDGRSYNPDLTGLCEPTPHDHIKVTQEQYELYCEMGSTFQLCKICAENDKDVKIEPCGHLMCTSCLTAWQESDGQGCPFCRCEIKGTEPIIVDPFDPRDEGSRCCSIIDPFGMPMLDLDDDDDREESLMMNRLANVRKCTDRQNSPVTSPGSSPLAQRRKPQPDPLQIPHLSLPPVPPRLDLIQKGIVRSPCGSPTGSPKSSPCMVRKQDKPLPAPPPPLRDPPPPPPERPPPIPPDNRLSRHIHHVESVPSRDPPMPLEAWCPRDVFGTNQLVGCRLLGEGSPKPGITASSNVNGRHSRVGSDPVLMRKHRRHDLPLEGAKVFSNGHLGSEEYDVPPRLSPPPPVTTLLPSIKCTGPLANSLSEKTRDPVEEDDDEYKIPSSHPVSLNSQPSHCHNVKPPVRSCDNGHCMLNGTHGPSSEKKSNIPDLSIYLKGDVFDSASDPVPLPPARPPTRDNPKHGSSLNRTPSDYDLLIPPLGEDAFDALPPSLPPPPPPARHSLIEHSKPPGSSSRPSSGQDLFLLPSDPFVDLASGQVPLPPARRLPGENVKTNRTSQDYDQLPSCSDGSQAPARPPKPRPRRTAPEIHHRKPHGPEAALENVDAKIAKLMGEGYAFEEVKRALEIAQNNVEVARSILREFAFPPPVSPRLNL

For the molecule `C[C@H](c1cc2c(c(C(F)(F)F)c1)CN(c1cccc(C3(Cc4nncn4C)COC3)c1)C2=O)N1CC(C)(F)C1`, the “fold change (FC)” value in test [1] is recorded as “>=1.001”; in test [2], “>=7.5”; in test [3] it was 1.51; in test [5], “>=0.201”; in test [6], 5; in test [7], 1.51. The half-maximal inhibitory concentration (IC50) in test [4] was < 100 nM.
With `Cn1cnnc1CC1(c2cccc(N3Cc4c(cc(CN5CC[C@H]6C[C@H]65)cc4C(F)(F)F)C3=O)c2)COC1`, the “fold change (FC)” value is reported as “>=1.001” in test [1]; “>=7.5” in test [2]; 1.51 in test [3]; “>=0.201” in test [5]; “>=7.5” in test [6]; 1.51 in test [7]. In test [4], the IC50 was < 100 nM.
With `Cn1cnnc1CC1(c2cccc(N3Cc4c(cc(CN5Cc6cccc(F)c6C5)cc4C(F)(F)F)C3=O)c2)COC1`, the “fold change (FC)” value in test [1] was “>=1.001”; in test [2], “>=7.5”; in test [3], 1.31; in test [5] it was “>=0.201”; in test [6] it was 2.51; in test [7], 1.31. The 50% inhibitory concentration (IC50) in test [4] is < 100 nM.
In the case of `Cn1cnnc1CC1(c2cccc(N3Cc4c(cc(C5CN6CCC5CC6)cc4C(F)(F)F)C3=O)c2)COC1` (stereo not drawn), the “fold change (FC)” value in test [1] is 0.601; in test [2] it was 5; in test [3] it was 1.01; in test [5], “<=0.05”; in test [6] it was 2.51; in test [7], 1.01. In test [4], the IC50 is < 100 nM.
Consider `CC(c1cc2c(c(C3CC3)n1)CN(c1cccc(C3(Cc4nncn4C)COC3)c1)C2=O)N1CC2(CC2)C1` (stereo not drawn), for which the “fold change (FC)” value is given as 0.601 in test [1]; 2.51 in test [2]; 1.01 in test [3]; “<=0.05” in test [5]; 1.01 in test [6]; 1.01 in test [7]. In test [4], the IC50 was < 100 nM.
In the case of `CCOc1cc(N2Cc3c(cc([C@@H](C)N4CC[C@H](F)C4)cc3C(F)(F)F)C2=O)cc(C2(Cc3nncn3C)COC2)c1`, the “fold change (FC)” value in test [1] was “>=1.001”; in test [2], “>=7.5”; in test [3], 1.51; in test [5], “>=0.201”; in test [6], “>=7.5”; in test [7], 1.31. Moreover, the concentration for half-maximal inhibition (IC50) in test [4] was < 100 nM.
As for `Cn1cnnc1CC1(c2cccc(N3Cc4c(cc(CN5CCCC56COC6)cc4C(F)(F)F)C3=O)c2)COC1`, the “fold change (FC)” value in test [1] is recorded as 0.801; in test [2], 5; in test [3], 1.31; in test [5], 0.151; in test [6], 1.01; in test [7] it was 1.01. Besides, the half-maximal inhibitory concentration (IC50) in test [4] was < 100 nM.
As to `Cn1cnnc1CC1(c2cccc(N3Cc4c(cc(CN5CCC(C#N)CC5)cc4C(F)(F)F)C3=O)c2)COC1`, the “fold change (FC)” value in test [1] is listed as “>=1.001”; in test [2] it was “>=7.5”; in test [3], 1.31; in test [5], “>=0.201”; in test [6], 5; in test [7], 1.31. In test [4], the half-maximal inhibitory concentration (IC50) was < 100 nM.
`Cn1cnnc1CC1(c2cccc(NC(=O)c3[nH]nc4c3OCCC4)c2)COC1`: the “fold change (FC)” value came out at 0.601 in test [1]; 1.01 in test [2]; 1.01 in test [3]; 0.051 in test [5]; 1.01 in test [6]; 1.01 in test [7]. The IC50 in test [4] was < 100 nM.
